This assay has as its system acetylation level of H3K23 in ZR-75-1 cells. Kind of assay: Effect on histone acetilation in ER-positive breast cancer cells (Western blotting). The assay is classed as cell-based, human. The note with it: 5 days of incubation, from 5 μM, Western blot (FIG. 1). As to the method:
Test Example 4: Assay for Effects of Compounds on Histone Acetylation in Estrogen Receptor-Positive Breast Cancer Cells
Assay Method: Western Blotting Method (Immunoblotting Assay)
The effects of the test compounds on the acetylation level of H3K23 in ZR-75-1 cells (Nanjing Cobioer, CBP60402) were assayed. • 1. On day 1, the cells were plated at 400,000 cells/well (2 mL/well) and cultured overnight in an incubator at 37° C. with 5% CO2. • 2. On day 2, compounds were added starting at 5 μM, with a 10-fold serial dilution across a total of 3 concentration gradients, and DMSO was added to the negative control wells. • 3. On day 6, after 5 days of incubation with compounds, protein samples were collected: An ice box, pre-cooled PBS (4° C.), a cell lysis buffer RIPA (Beyotime, P0013B), and a protease inhibitor (100x) (Thermo Scientific™, 87786) were prepared. Then, 120 μL of the cell lysis buffer was added to each well. The mixture was placed on ice for about 15 min. […] Protein quantification by BCA method (Beyotime, P0009) • Standards (8 concentrations) were prepared, and the samples and the standards were added to a 96-well plate. […] The absorbance was then measured using a microplate reader. […]
The next day, the PVDF membrane was taken out and washed (8 min×3) with TBST (with 0.5% Tween 20). […] After the washing, a luminescence solution (Tanon, 180-506) was added for exposure. […]

`COc1ccc2c(c1S(=O)(=O)Nc1noc3cc(Cn4cccn4)c(F)c(OC)c13)OCCO2` [Compound 28, N-(6-((1H-Pyrazol-1-yl)methyl)-5-fluoro-4-methoxybenzo[d]isoxazol-3-yl)-6-methoxy-2,3-dihydrobenzo[b][1,4]dioxine-5-sulfonamide]: the “acetylation level of H3K23” value is given as “significantly reduce the acetylation level of H3K23”.
For `COc1ccccc1S(=O)(=O)Nc1noc2cc(Cn3cccn3)cc(OC)c12` [PF-8144, reference compound] the value was “significantly reduce the acetylation level of H3K23”.

The values are drawn from patent publication US20260174778A1, “SULFONAMIDE COMPOUND, AND PREPARATION METHOD THEREFOR AND USE THEREOF” (SHANGHAI HENLIUS BIOTECH, INC., priority 2023, published 2026).
